Legend:
Type in all cases: in vivo
[1] = system: Aedes aegypti (Yellow Fever Mosquito); test: whole plant or invertebrate; conditions: 48 h, L2 larvae with nutrition mixture, 2 days, mortality and growth inhibition
Protocol: (§1) Test against were performed as follows:
Bean leaf discs on agar in 24-well microtiter plates wer sprayed with test solutions at an application rate of 200 ppm. After drying, the leaf discs are infested with mite populations of mixed ages. 8 days later, discs are checked for egg mortality, larval mortality, and adult mortality. […] Aedes aegypti (Yellow Fever Mosquito): 10-15 Aedes larvae (L2) together with a nutrition mixture are placed in 96-well microtiter plates. Test solutions at an application rate of 2 ppm are pipetted into the wells. 2 days later, insects were checked for mortality and growth inhibition.

[2] = system: Heliothis virescens (Tobacco Budworm); test: Heliothis virescens egg/larva test on artificial diet; conditions: 96 h, read-out: control of Heliothis virescens
[3] = system: Plutella xylostella (Diamond Back Moth); test: Plutella xylostella larva test on artificial diet; conditions: 120 h, 18.2 ppm by pipetting on artificial diet, L2 larvae, 5 days incubation, larval mortality, antifeedant, growth regulation
Protocol: as §1
24-well microtiter plate (MTP) with artificial diet was treated with test solutions at an application rate of 18.2 ppm by pipetting. After drying, the MTP's were infested with larvae (L2) (10-15 per well). After an incubation period of 5 days, samples were checked for larval mortality, antifeedant and growth regulation.

[4] = system: Spodoptera littoralis (Egyptian Cotton Leafworm); test: Spodoptera littoralis cotton leaf disc spray test; conditions: foliar, 72 h, read-out: control of Spodoptera littoralis
Protocol: as §1
Spodoptera littoralis (Egyptian Cotton Leafworm)

## O=C(c1ccnc(Cl)c1)N1CC2(CCN(C/C=C(\F)c3ccc(Cl)cc3)CC2)c2cc(Cl)ccc21 [XXX-90, 1-(2-chloropyridin-4-yl)carbonyl-5-chloro-1′-[(Z)-3-(4-chlorophenyl)-3-fluoro-allyl]spiro[indolin-3,4′-piperidine]]
[1]
  pest or weed control at 2 ppm: ≥ 80%
[2]
  pest or weed control at 200 ppm: ≥ 80%
[3]
  pest or weed control at 18.2 ppm: ≥ 80%

## O=C(c1ccnc(Cl)c1)N1CC2(CCN(C/C=C/c3ccccc3)CC2)c2ccccc21 [Compound I-1, 1-(2-Chloropyridin-4-yl)carbonyl-1′-[trans-3-phenylallyl]spiro[indoline-3,4′-piperidine]]
[2]
  pest or weed control at 200 ppm: ≥ 80%
[3]
  pest or weed control at 18.2 ppm: ≥ 80%

## CSc1ccc(/C=C\CN2CCC3(CC2)CN(C(=O)c2ccnc(Cl)c2)c2ccc(Cl)cc23)cc1 [XXX-72, 1-(2-chloropyridin-4-yl)carbonyl-5-chloro-1′-[(Z)-3-(4-methylthiophenyl)allyl]spiro[indolin-3,4′-piperidine]]
[2]
  pest or weed control at 200 ppm: ≥ 80%

## O=C(c1ccnc(Cl)c1)N1CC2(CCN(C/C=C(\Cl)c3ccc(Cl)cc3)CC2)c2cc(Cl)ccc21 [XXX-115, 1-(2-chloropyridin-4-yl)carbonyl-5-chloro-1′-[(Z)-3-(4-chlorophenyl)-3-chloro-allyl]spiro[indolin-3,4′-piperidine]]
[2]
  pest or weed control at 200 ppm: ≥ 80%

## O=C(c1ccnc(Cl)c1)N1CC2(CCN(C/C(F)=C/c3ccc(Cl)cc3)CC2)c2cc(Cl)ccc21 [XXX-113, 1-(2-chloropyridin-4-yl)carbonyl-5-chloro-1′-[(Z)-3-(4-chlorophenyl)-2-fluoro-allyl]spiro[indolin-3,4′-piperidine]]
[1]
  pest or weed control at 2 ppm: ≥ 80%
[2]
  pest or weed control at 200 ppm: ≥ 80%
[4]
  pest or weed control at 200 ppm: ≥ 80%
[3]
  pest or weed control at 18.2 ppm: ≥ 80%

## O=C(c1ccnc(Cl)c1)N1CC2(CCN(C/C=C/c3ccc(C(F)(F)F)cc3)CC2)c2cc(Cl)ccc21 [XXX-51, 1-(2-chloropyridin-4-yl)carbonyl-5-chloro-1′-[(E)-3-(4-trifluoromethyl-phenyl)allyl]spiro[indolin-3,4′-piperidine]]
[1]
  pest or weed control at 2 ppm: ≥ 80%
[4]
  pest or weed control at 200 ppm: ≥ 80%
[3]
  pest or weed control at 18.2 ppm: ≥ 80%

## Cc1ccc2c(c1)C1(CCN(C/C=C/c3ccc(Cl)cc3)CC1)CN2C(=O)c1ccc(C#N)cc1 [XIX-202, 1-(4-cyanobenzoyl)-5-methyl-1′-[trans-3-(4-chlorophenyl)allyl]spiro[indoline-3,4′-piperidine]]
[2]
  pest or weed control at 200 ppm: ≥ 80%
[4]
  pest or weed control at 200 ppm: ≥ 80%

## NN1CC2(CCN(C/C=C/c3ccc(Cl)cc3)CC2)c2cc(F)ccc21 [XXX-94]
[1]
  pest or weed control at 2 ppm: ≥ 80%
[2]
  pest or weed control at 200 ppm: ≥ 80%

## O=C(c1ccncc1)N1CC2(CCN(C/C=C/c3ccc(Cl)cc3)CC2)c2cc(Cl)ccc21 [VI-22, 1-(Pyridin-4-yl)-carbonyl-5-chloro-1′-[trans-3-(4-chlorophenyl)allyl]spiro[indoline-3,4′-piperidine]]
[1]
  pest or weed control at 2 ppm: ≥ 80%
[2]
  pest or weed control at 200 ppm: ≥ 80%
[4]
  pest or weed control at 200 ppm: ≥ 80%
[3]
  pest or weed control at 18.2 ppm: ≥ 80%

## CC(=O)N1CC2(CCN(C/C=C/c3ccc(Cl)cc3)CC2)c2cc(Cl)ccc21 [Compound V-22, 1-Acetyl-5-chloro-1′-[trans-3-(4-chlorophenyl)allyl]spiro[indoline-3,4′-piperidine]]
[1]
  pest or weed control at 2 ppm: ≥ 80%
[2]
  pest or weed control at 200 ppm: ≥ 80%
[4]
  pest or weed control at 200 ppm: ≥ 80%
[3]
  pest or weed control at 18.2 ppm: ≥ 80%

## COCCNC(=O)N1CC2(CCN(C/C=C/c3ccc(Cl)cc3)CC2)c2cc(F)ccc21 [XXX-105]
[1]
  pest or weed control at 2 ppm: ≥ 80%
[2]
  pest or weed control at 200 ppm: ≥ 80%
[4]
  pest or weed control at 200 ppm: ≥ 80%
[3]
  pest or weed control at 18.2 ppm: ≥ 80%

## C/C(=N/N1CC2(CCN(C/C=C/c3ccc(Cl)cc3)CC2)c2cc(Cl)ccc21)N(C)C [XXX-102, N′-[5-chloro-1′-[trans-3-(4-chlorophenyl)allyl]spiro[indoline-3,4′-piperidine]-1-yl]-N,N-dimethylacetamidine]
[1]
  pest or weed control at 2 ppm: ≥ 80%

## Clc1ccc(/C=C/CN2CCC3(CC2)CN(c2cnccn2)c2ccc(Cl)cc23)cc1 [XIV-22, 1-(2-Pyrazinyl)-5-chloro-1′-[trans-3-(4-chlorophenyl)allyl]spiro[indoline-3,4′-piperidine]]
[1]
  pest or weed control at 2 ppm: ≥ 80%
[2]
  pest or weed control at 200 ppm: ≥ 80%
[4]
  pest or weed control at 200 ppm: ≥ 80%
[3]
  pest or weed control at 18.2 ppm: ≥ 80%

## N#Cc1ccc2c(c1)C1(CCN(C/C=C/c3ccc(Cl)cc3)CC1)CN2C(=O)c1ccnc(Cl)c1 [Compound I-212, 5-Cyano-1-(2-chloropyridin-4-yl)carbonyl-1′-[trans-3-(4-chlorophenyl)allyl]spiro[indoline-3,4′-piperidine]]
[1]
  pest or weed control at 2 ppm: ≥ 80%
[2]
  pest or weed control at 200 ppm: ≥ 80%
[4]
  pest or weed control at 200 ppm: ≥ 80%
[3]
  pest or weed control at 18.2 ppm: ≥ 80%

Source: patent US9686990B2, “Spiroindolinepiperidine derivatives” (priority 2002, dated 2017)
